Laboratory results from ChEMBL document CHEMBL5247660, “The lipidation and glycosylation enabling bioactivity enhancement and structural change of antibacterial peptide G3” (Bioorg Med Chem Lett, 2023).
Converted amounts (≈) assume the structure as drawn. The source made the active and inactive calls. The calls are words filed in the database; no cut-off is given here. Residues, ends and D or L forms follow the SMILES beside them. *: point of attachment. βGlc = OC[C@H]1O[C@@H](*)[C@H](O)[C@@H](O)[C@@H]1O; βGal = OC[C@H]1O[C@@H](*)[C@H](O)[C@@H](O)[C@H]1O; Palmitoyl = CCCCCCCCCCCCCCCC(=O)*; Lauroyl = CCCCCCCCCCCC(=O)*; Octanoyl = CCCCCCCC(=O)*

Key:
Escherichia coli = test: Antibacterial activity against Escherichia coli assessed as bacterial growth inhibition; type: functional
[1] = molecular target: T1, PA-I galactophilic lectin (Pseudomonas aeruginosa (strain ATCC 15692 / PAO1 / 1C / PRS 101 / LMG12228)) (UniProt Q05097); test: Binding affinity to Pseudomonas aeruginosa LecA assessed as change in entropy
T1 sequence (whole entry): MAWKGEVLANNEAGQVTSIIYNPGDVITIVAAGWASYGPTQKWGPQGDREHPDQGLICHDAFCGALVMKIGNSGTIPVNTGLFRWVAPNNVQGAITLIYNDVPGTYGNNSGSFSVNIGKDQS

[2] = molecular target: T1, PA-I galactophilic lectin (Pseudomonas aeruginosa (strain ATCC 15692 / PAO1 / 1C / PRS 101 / LMG12228)); test: Binding affinity to Pseudomonas aeruginosa LecA assessed as change in enthalpy
Staphylococcus aureus [3] = test: Antibacterial activity against methicillin-resistant Staphylococcus aureus assessed as bacterial growth inhibition; type: functional
Staphylococcus aureus [4] = test: Antibacterial activity against Staphylococcus aureus assessed as bacterial growth inhibition; type: functional
Pseudomonas aeruginosa [5] = test: Antibacterial activity against Pseudomonas aeruginosa assessed as bacterial growth inhibition; type: functional
Cell membrane = test: Induction of outer membrane permeabilization in Pseudomonas aeruginosa PAO1 assessed as increase in NPN uptake at 8 to 32 uM by NPN-dye based fluorescence analysis; conditions: dose 8-32 µM
Pseudomonas aeruginosa [6] = test: Antibiofilm activity against Pseudomonas aeruginosa PAO1 assessed as removal of mature biofilm at 32 uM incubated for 4 hrs at relative to control; type: functional
Pseudomonas aeruginosa [7] = test: Antibiofilm activity against Pseudomonas aeruginosa PAO1; type: functional, organism-based
Pseudomonas aeruginosa [8] = test: Antibiofilm activity against Pseudomonas aeruginosa PAO1 assessed as inhibition of biofilm formation at 8 to 32 uM incubated for 24 hrs by microplate reader analysis relative to control; type: functional; conditions: dose 8-32 µM, read-out: MIC
Pseudomonas aeruginosa [9] = test: Antibiofilm activity against Pseudomonas aeruginosa PAO1 assessed as inhibition of biofilm formation at 32 uM incubated for 24 hrs by microplate reader analysis relative to control; type: functional
[10] = molecular target: T2, PA-I galactophilic lectin (Pseudomonas aeruginosa (strain ATCC 15692 / PAO1 / 1C / PRS 101 / LMG12228), UniProt Q05097); test: Binding affinity to Pseudomonas aeruginosa LecA assessed as dissociation constant
T2 sequence (Q05097 whole entry): T1 sequence (whole entry)

[11] = Hemolytic activity in sheep RBC assessed as hemolysis at 128 uM; type: toxicity, cell-based, Ovis aries; conditions: erythrocyte
Pseudomonas aeruginosa [12] = test: Antibiofilm activity against Pseudomonas aeruginosa PAO1 assessed as inhibition of biofilm formation ratio at 2 times of MIC concentration incubated for 24 hrs by microplate reader analysis relative to control; type: functional; design: scale not given: the % may be the effect or the level left
[13] = Hemolytic activity in sheep RBC assessed as hemolysis; type: toxicity, cell-based, Ovis aries; conditions: erythrocyte
Pseudomonas aeruginosa [14] = test: Antibiofilm activity against Pseudomonas aeruginosa PAO1 assessed as inhibition of biofilm formation ratio at MIC concentration incubated for 24 hrs by microplate reader analysis relative to control; type: functional; design: scale not given: the % may be the effect or the level left
Pseudomonas aeruginosa [15] = test: Antibiofilm activity against Pseudomonas aeruginosa PAO1 assessed as increase in biofilm inhibition ratio at 2 times of MIC concentration incubated for 24 hrs by microplate reader analysis relative to control; type: functional; design: scale not given: the % may be the effect or the level left
Pseudomonas aeruginosa [16] = test: Antibiofilm activity against Pseudomonas aeruginosa PAO1 assessed as increase in biofilm inhibition ratio at half MIC concentration incubated for 24 hrs by microplate reader analysis relative to control; type: functional; design: scale not given: the % may be the effect or the level left
Pseudomonas aeruginosa [17] = test: Antibiofilm activity against Pseudomonas aeruginosa PAO1 assessed as increase in biofilm inhibition ratio at MIC concentration incubated for 24 hrs by microplate reader analysis relative to control; type: functional; design: scale not given: the % may be the effect or the level left

Molecule	MIC (Escherichia coli) [µM]	deltaS [1] [J/mol/K]	deltaH [2] [kJ/mol]	MIC (Staphylococcus aureus [3]) [µM]	MIC (Staphylococcus aureus [4]) [µM]	MIC (Pseudomonas aeruginosa [5]) [µM]	Activity (Cell membrane)	Activity (Pseudomonas aeruginosa [6]) [%]	Activity (Pseudomonas aeruginosa [7])	Minimum biofilm inhibitory concentration (Pseudomonas aeruginosa [8]) [µM]	MIC (Pseudomonas aeruginosa [9]) [µM]	Kd [10] [µM]	Activity [11]	Activity (Pseudomonas aeruginosa [12]) [%]	Activity [13]	Activity (Pseudomonas aeruginosa [14]) [%]	Activity (Pseudomonas aeruginosa [15]) [%]	Activity (Pseudomonas aeruginosa [16]) [%]	Activity (Pseudomonas aeruginosa [17]) [%]
CC[C@H](C)[C@H](NC(=O)CN)C(=O)N[C@H](C(=O)N[C@@H](CCCCN)C(=O)N[C@@H](CCCCN)C(=O)N[C@H](C(=O)N[C@H](C(=O)N[C@@H](CCCCN)C(=O)N[C@@H](CCCCN)C(=O)N[C@H](C(=O)N[C@H](C(=O)N[C@@H](CCCCN)C(=O)N[C@@H](CCCCN)C(=O)N[C@H](C(=O)N[C@@H](CO[C@@H]1O[C@H](CO)[C@H](O)[C@H](O)[C@H]1O)C(N)=O)[C@@H](C)CC)[C@@H](C)CC)[C@@H](C)CC)[C@@H](C)CC)[C@@H](C)CC)[C@@H](C)CC (H-GIIKKIIKKIIKKIS(βGal)-NH2)	32 (≈ 60.3 µg/mL)	-246	-100	32 (≈ 60.3 µg/mL)	16 (≈ 30.2 µg/mL)	16 (≈ 30.2 µg/mL)	Active	62	Active	16	32 (≈ 60.3 µg/mL)	21.1							
CC[C@H](C)[C@H](NC(=O)CN)C(=O)N[C@H](C(=O)N[C@@H](CCCCN)C(=O)N[C@@H](CCCCN)C(=O)N[C@H](C(=O)N[C@H](C(=O)N[C@@H](CCCCN)C(=O)N[C@@H](CCCCN)C(=O)N[C@H](C(=O)N[C@H](C(=O)N[C@@H](CCCCN)C(=O)N[C@@H](CCCCN)C(=O)N[C@H](C(=O)N[C@@H](CO[C@@H]1O[C@H](CO)[C@@H](O)[C@H](O)[C@H]1O)C(N)=O)[C@@H](C)CC)[C@@H](C)CC)[C@@H](C)CC)[C@@H](C)CC)[C@@H](C)CC)[C@@H](C)CC (H-GIIKKIIKKIIKKIS(βGlc)-NH2)	32 (≈ 60.3 µg/mL)			32 (≈ 60.3 µg/mL)	16 (≈ 30.2 µg/mL)	16 (≈ 30.2 µg/mL)	Active	71	Active	16									
CCCCCCCCCCCC(=O)NCC(=O)N[C@H](C(=O)N[C@H](C(=O)N[C@@H](CCCCN)C(=O)N[C@@H](CCCCN)C(=O)N[C@H](C(=O)N[C@H](C(=O)N[C@@H](CCCCN)C(=O)N[C@@H](CCCCN)C(=O)N[C@H](C(=O)N[C@H](C(=O)N[C@@H](CCCCN)C(=O)N[C@@H](CCCCN)C(=O)N[C@H](C(N)=O)[C@@H](C)CC)[C@@H](C)CC)[C@@H](C)CC)[C@@H](C)CC)[C@@H](C)CC)[C@@H](C)CC)[C@@H](C)CC (Lauroyl-GIIKKIIKKIIKKI-NH2)	12 (≈ 21.8 µg/mL)			12 (≈ 21.8 µg/mL)	4 (≈ 7.27 µg/mL)	16 (≈ 29.1 µg/mL)	Active			16									
CCCCCCCC(=O)NCC(=O)N[C@H](C(=O)N[C@H](C(=O)N[C@@H](CCCCN)C(=O)N[C@@H](CCCCN)C(=O)N[C@H](C(=O)N[C@H](C(=O)N[C@@H](CCCCN)C(=O)N[C@@H](CCCCN)C(=O)N[C@H](C(=O)N[C@H](C(=O)N[C@@H](CCCCN)C(=O)N[C@@H](CCCCN)C(=O)N[C@H](C(N)=O)[C@@H](C)CC)[C@@H](C)CC)[C@@H](C)CC)[C@@H](C)CC)[C@@H](C)CC)[C@@H](C)CC)[C@@H](C)CC (Octanoyl-GIIKKIIKKIIKKI-NH2)	4 (≈ 7.05 µg/mL)			4 (≈ 7.05 µg/mL)	4 (≈ 7.05 µg/mL)	16 (≈ 28.2 µg/mL)	Active			16			Toxic						
CCCCCCCC(=O)NCC(=O)N[C@H](C(=O)N[C@H](C(=O)N[C@@H](CCCCN)C(=O)N[C@@H](CCCCN)C(=O)N[C@H](C(=O)N[C@H](C(=O)N[C@@H](CCCCN)C(=O)N[C@@H](CCCCN)C(=O)N[C@H](C(=O)N[C@H](C(=O)N[C@@H](CCCCN)C(=O)N[C@@H](CCCCN)C(=O)N[C@H](C(=O)N[C@@H](CO[C@@H]1O[C@H](CO)[C@H](O)[C@H](O)[C@H]1O)C(N)=O)[C@@H](C)CC)[C@@H](C)CC)[C@@H](C)CC)[C@@H](C)CC)[C@@H](C)CC)[C@@H](C)CC)[C@@H](C)CC (Octanoyl-GIIKKIIKKIIKKIS(βGal)-NH2)	4 (≈ 8.04 µg/mL)	29.4	-18.9	4 (≈ 8.04 µg/mL)	4 (≈ 8.04 µg/mL)	16 (≈ 32.2 µg/mL)	Active		Active	16		14.1		71	Dose-Dependent Effect	71			
CCCCCCCC(=O)NCC(=O)N[C@H](C(=O)N[C@H](C(=O)N[C@@H](CCCCN)C(=O)N[C@@H](CCCCN)C(=O)N[C@H](C(=O)N[C@H](C(=O)N[C@@H](CCCCN)C(=O)N[C@@H](CCCCN)C(=O)N[C@H](C(=O)N[C@@H](CO[C@@H]1O[C@H](CO)[C@H](O)[C@H](O)[C@H]1O)C(N)=O)[C@@H](C)CC)[C@@H](C)CC)[C@@H](C)CC)[C@@H](C)CC)[C@@H](C)CC (Octanoyl-GIIKKIIKKIS(βGal)-NH2)	12 (≈ 18.3 µg/mL)	-4.53	-27.3	4 (≈ 6.11 µg/mL)	4 (≈ 6.11 µg/mL)	16 (≈ 24.4 µg/mL)	Active			16		28							
CCCCCCCCCCCCCCCC(=O)NCC(=O)N[C@H](C(=O)N[C@H](C(=O)N[C@@H](CCCCN)C(=O)N[C@@H](CCCCN)C(=O)N[C@H](C(=O)N[C@H](C(=O)N[C@@H](CCCCN)C(=O)N[C@@H](CCCCN)C(=O)N[C@H](C(=O)N[C@H](C(=O)N[C@@H](CCCCN)C(=O)N[C@@H](CCCCN)C(=O)N[C@H](C(N)=O)[C@@H](C)CC)[C@@H](C)CC)[C@@H](C)CC)[C@@H](C)CC)[C@@H](C)CC)[C@@H](C)CC)[C@@H](C)CC (Palmitoyl-GIIKKIIKKIIKKI-NH2)	32 (≈ 60 µg/mL)			32 (≈ 60 µg/mL)	16 (≈ 30 µg/mL)	32 (≈ 60 µg/mL)	Active			16									
Ac-GIIKKIIKKIIKKI-NH2	12			12	4	32	Active			16									
H-GIIKKIIKKIIKKI-NH2	8			16	4	16	Active			16							59	45	46
